Here are results for three molecules from article PMC8669712, “G Protein-Coupled Receptor GPR35 Suppresses Lipid Accumulation in Hepatocytes” (ACS Pharmacology & Translational Science, 2021).

*1 amine or outer side, *2 acyl side, *3 side chain or, on linkers, in order; H or OH if unused. Where a SMILES comes first, the peptide text is derived from it. Bridges are numbered along the chain shown (N, C = ends). [ ]: non-standard residue; d: D form. The star is where a group is joined. Leu(3R-OH,Nα-propionyl) = CCC(=O)N[C@H](C(=O)*)[C@H](O)C(C)C; X1 = CC(C)[C@@H](O[*:3])[C@H](N[*:1])C(=O)[*:2]; NMeT = CN[C@H](C(=O)O)[C@@H](C)O; dPhLac = O=C(O)[C@H](O)Cc1ccccc1; NMeA = CN[C@@H](C)C(=O)O; NMeDha = C=C(NC)C(=O)O

Series [1] has as its system GPR35 genome-edited HepG2 clones. Description: Label-free cellular impedance assay in GPR35 genome-edited HepG2 clones 19 and 27. The format is cell-based, human. Conditions: P2Y purinoceptor stimulus, control of responsiveness. From the text: Expression of full-length mRNA from the GPR35 gene was eliminated using a dual synthetic gRNA/RNP approach[43] with one guide cutting the intron and one in the exon region to generate a nonfunctional GPR35 protein. The gRNAs were designed with the CRISPR Finder (Welcome Sanger Institute). HepG2 cells were transfected with the Neon Transfection System from Thermo Fisher Scientific (Waltham, MA), according to the manufacturer’s instructions. Briefly, CrRNA and tracrRNA were annealed to gRNA at 95 °C for 5 min. Next, cells were transfected with gRNA, Cas9, and the electroporation enhancer, according to the manufacturer’s instructions. All crRNAs, tracrRNA, SpCas9 nuclease, and the electroporation enhancer were purchased from Integrated DNA Technologies (Coralville, IA). Transfected cells were plated and analyzed for editing efficiency 24–48 h after electroporation. Single-cell clones were generated by single-cell FACS sorting. Clones were expanded and to access editing efficiency, genomic DNA from cell clones was extracted and subjected to PCR to confirm the genome deletion. To further quantify and capture the genomic DNA deletion, PCR primers listed in Table S1 were designed to amplify the genomic DNA surrounding the target site. The PCR primers were linked to the sequences of the Illumina Nextera adapters. The amplified PCR products were subjected to paired-end sequencing using NextSeq500 from Illumina using paired-end chemistry with a 150-bp read length. In addition, mRNA from KO clones was isolated and subjected to RT-PCR. To further confirm the abrogation of GPR35 activation in CRISPR KO clones, KO cells were seeded onto xCELLigence E plates (2 × 10^4 cells/well) for 24 h at 37 °C prior to the treatment of GPR35 agonists. The impedance was recorded using xCELLigence RTCA. […]
HepG2 cells were seeded onto xCELLigence E plates (2 × 10^4 cells/well) and incubated for 24 h at 37 °C. […] After the addition of GPR35 agonist or vehicle control, the impedance (represented as “cell index”) was recorded every 30 s over a 2 h period using xCELLigence RTCA (Agilent). […]

For series [2], the system named is HepG2 cells. The series can be described thus: Label-free cellular impedance assay (xCELLigence) in HepG2 cells. Format: cell-based, human. Particulars: HepG2 cells; FR900359 1 × 10^–7 M, Pertussis toxin 100 ng/mL, Y27632 1 × 10^–5 M. As for the experimental part: HepG2 cells were seeded onto xCELLigence E plates (2 × 10^4 cells/well) and incubated for 24 h at 37 °C. To evaluate GPR35 activation and its downstream G protein signaling, HepG2 cells or primary mouse hepatocytes were exposed to GPR35 antagonists or G protein inhibitors 1 h (overnight for Pertussis toxin) prior to GPR35 agonist stimulation. After the addition of GPR35 agonist or vehicle control, the impedance (represented as “cell index”) was recorded every 30 s over a 2 h period using xCELLigence RTCA (Agilent). Each experiment was repeated at least three times.

Series [3] relates to GPR35 knock-out clones of HepG2 cells. Description: Oil Red O lipid accumulation in GPR35 knock-out clones of HepG2 cells. The format is cell-based, human. Conditions: T0901317 4 × 10^–6 M, 48 h, higher baseline. The procedure: Human hepatocellular carcinoma HepG2 cells were grown in Minimum Essential Medium (MEM) supplemented with 10% fetal bovine serum (FBS), 2 mM L-glutamine, 1× non-essential amino acid, 1 mM sodium pyruvate, and 1× penicillin/streptomycin. Materials for cell culture were all from Sigma-Aldrich (St. Louis, MO) or Thermo Fisher Scientific (Waltham, MA). Cells were incubated in a humidified CO2 incubator at 37 °C. Experiments were performed when cell confluence reached 80%. Cells were seeded onto a 12-well plate (1 × 10^5 cells/well) for 24 h prior to drug treatment. […] Expression of full-length mRNA from the GPR35 gene was eliminated using a dual synthetic gRNA/RNP approach[43] with one guide cutting the intron and one in the exon region to generate a nonfunctional GPR35 protein. The gRNAs were designed with the CRISPR Finder (Welcome Sanger Institute). […] Transfected cells were plated and analyzed for editing efficiency 24-48 h after electroporation. […] To further quantify and capture the genomic DNA deletion, PCR primers listed in Table S1 were designed to amplify the genomic DNA surrounding the target site. […] The amplified PCR products were subjected to paired-end sequencing using NextSeq500 from Illumina using paired-end chemistry with a 150-bp read length. […] The impedance was recorded using xCELLigence RTCA. […] Lipid accumulation was measured by Oil Red O staining.

The test system of series [4] is hepatocytes from wild-type mice. The series can be described thus: Oil Red O lipid accumulation in hepatocytes from wild-type mice. Format: cell-based, mouse. Particulars: wild-type mice, 5 × 10^–6 M, 48 h. The procedure: All mice were bred as WT or homozygous onto a C57BL/6N background. Animals were cared for in accordance with national guidelines on animal experimentation. All animal experiments were conducted under a home office license held by the authors. WT, humanized GPR35a, or KO male mice at 3–4 months of age were used in this study. These mice were fed ad libitum with a standard mouse chow diet. Briefly, mouse primary hepatocytes were isolated using a two-step collagenase perfusion technique.[45] Twelve-well plates or xCELLigence E plates were coated with rat tail collagen I solution (Thermo Fisher Scientific) overnight at 37 °C and washed with PBS. Isolated primary hepatocytes were seeded onto 12-well plates (8 × 10^4 cells/well) or xCELLigence E plates (2 × 10^4 cells/well) in Wiliam’s E medium (Thermo Fisher Scientific) supplemented with 10% fetal bovine serum (FBS) and 1× penicillin/streptomycin. Cells were maintained for 7 days with a fresh medium change every other day. […] Human GPR35 activation was examined using xCELLigence RTCA assay. To access the impact of GPR35 agonists on the lipid accumulation, WT and humanized GPR35 hepatocytes were incubated with T0901317 and/or GPR35 agonists/antagonists, as indicated (in DMEM medium containing 5% FBS and 1.5% BSA) for 48 h. Alternatively, GPR35 KO hepatocytes were incubated with drugs, as indicated for 5 days. […] After each drug treatment, hepatocytes were stained with Oil Red O and quantified as described. […]
(§1) Lipid accumulation was measured by Oil Red O staining. […] After PBS washing, Oil Red O was extracted from cells using 150 μl of isopropanol and OD510 nm measured. […] These cells were then stained with Hoechst 33342 (1 μg/mL) and the fluorescence intensity of Hoechst (represents the DNA content in cells) was measured using a CLARIOstar plate reader (BMG LABTECH). Oil Red O accumulation was corrected for differences in DNA content and expressed as relative absorbency, taking the control condition (treated with vehicle only) as 1.

Series [5] has as its system hepatocytes from hGPR35a-HA-expressing mice. The series can be described thus: Oil Red O lipid accumulation in hepatocytes from hGPR35a-HA-expressing mice. Format: cell-based, mouse. Conditions: T0901317 8 × 10^–6 M. As for the experimental part:
All mice were bred as WT or homozygous onto a C57BL/6N background. Animals were cared for in accordance with national guidelines on animal experimentation. All animal experiments were conducted under a home office license held by the authors. WT, humanized GPR35a, or KO male mice at 3–4 months of age were used in this study. These mice were fed ad libitum with a standard mouse chow diet. Briefly, mouse primary hepatocytes were isolated using a two-step collagenase perfusion technique.[45] Twelve-well plates or xCELLigence E plates were coated with rat tail collagen I solution (Thermo Fisher Scientific) overnight at 37 °C and washed with PBS. Isolated primary hepatocytes were seeded onto 12-well plates (8 × 10^4 cells/well) or xCELLigence E plates (2 × 10^4 cells/well) in Wiliam’s E medium (Thermo Fisher Scientific) supplemented with 10% fetal bovine serum (FBS) and 1× penicillin/streptomycin. Cells were maintained for 7 days with a fresh medium change every other day. […] Human GPR35 activation was examined using xCELLigence RTCA assay. To access the impact of GPR35 agonists on the lipid accumulation, WT and humanized GPR35 hepatocytes were incubated with T0901317 and/or GPR35 agonists/antagonists, as indicated (in DMEM medium containing 5% FBS and 1.5% BSA) for 48 h. Alternatively, GPR35 KO hepatocytes were incubated with drugs, as indicated for 5 days. In the T0901317 pretreatment model, human GPR35 hepatocytes were stimulated with T0901317 for 2 days and then further treated with lodoxamide for a further 3 days. After each drug treatment, hepatocytes were stained with Oil Red O and quantified as described. Each experiment was repeated at least three times.
Lipid accumulation was measured by Oil Red O staining. A working solution of Oil Red O was prepared, as described with modification.[46] After drug treatment, cells were washed with PBS and fixed with formalin solution for 1 h at 4 °C. Then, cells were stained with Oil Red O working solution for 10 min at room temperature. After PBS washing, Oil Red O was extracted from cells using 150 μl of isopropanol and OD510 nm measured. After the lipid extraction, cells were further soaked in PBS overnight at 4 °C. These cells were then stained with Hoechst 33342 (1 μg/mL) and the fluorescence intensity of Hoechst (represents the DNA content in cells) was measured using a CLARIOstar plate reader (BMG LABTECH). Oil Red O accumulation was corrected for differences in DNA content and expressed as relative absorbency, taking the control condition (treated with vehicle only) as 1.

The subject of series [6] is hepatocytes from GPR35 knock-out mice. The series can be described thus: Oil Red O lipid accumulation in hepatocytes from GPR35 knock-out mice. Conditions: equivalent time of exposure as in wild-type hepatocytes (48 h). As for the experimental part:
All mice were bred as WT or homozygous onto a C57BL/6N background. Animals were cared for in accordance with national guidelines on animal experimentation. All animal experiments were conducted under a home office license held by the authors. WT, humanized GPR35a, or KO male mice at 3–4 months of age were used in this study. These mice were fed ad libitum with a standard mouse chow diet. Briefly, mouse primary hepatocytes were isolated using a two-step collagenase perfusion technique.[45] Twelve-well plates or xCELLigence E plates were coated with rat tail collagen I solution (Thermo Fisher Scientific) overnight at 37 °C and washed with PBS. […] After each drug treatment, hepatocytes were stained with Oil Red O and quantified as described. […]
as §1

Series [7] deals with HepG2 cells. Description: Oil Red O staining of LXR (T0901317)-induced lipid accumulation in HepG2 cells. Conditions: 4 × 10^–6 M, 48 h. Format: cell-based, human. The procedure: Human hepatocellular carcinoma HepG2 cells were grown in Minimum Essential Medium (MEM) supplemented with 10% fetal bovine serum (FBS), 2 mM L-glutamine, 1× non-essential amino acid, 1 mM sodium pyruvate, and 1× penicillin/streptomycin. Materials for cell culture were all from Sigma-Aldrich (St. Louis, MO) or Thermo Fisher Scientific (Waltham, MA). Cells were incubated in a humidified CO2 incubator at 37 °C. […] Cells were seeded onto a 12-well plate (1 × 10^5 cells/well) for 24 h prior to drug treatment. […] Lipid accumulation was measured by Oil Red O staining.

As to `Nc1ncnc2c1ncn2[C@@H]1O[C@H](COP(=O)(O)OP(=O)(O)OP(=O)(O)O)[C@@H](O)[C@H]1O` [ATP], the “impedance response to ATP in wild-type HepG2 cells and GPR35 genome-edited clones” value in series [1] is recorded as “enhanced electrical conductance”.

`C=C1C(=O)N[C@@H](C)C(=O)N(C)[C@@H](C)C(=O)N[C@@H]([C@H](OC(=O)[C@@H](NC(=O)CC)[C@H](O)C(C)C)C(C)C)C(=O)N(C)[C@@H]([C@@H](C)OC)C(=O)O[C@H](C(C)C)[C@H](NC(C)=O)C(=O)O[C@H](Cc2ccccc2)C(=O)N1C` [FR900359] (Ac-[X1][dPhLac][NMeDha]A[NMeA][X1](Leu(3R-OH,Nα-propionyl))[NMeT](Me); ester 1-C): the “effect of signaling pathway inhibitor pretreatment on the impedance response to lodoxamide” value in the series on HepG2 cells [2] is given as “without effect”.

Take `O=S(=O)(c1ccccc1)N(CC(F)(F)F)c1ccc(C(O)(C(F)(F)F)C(F)(F)F)cc1` [T0901317, N-(2,2,2-trifluoroethyl)-N-[4-[2,2,2-trifluoro-1-hydroxy-1-(trifluoromethyl)ethyl]phenyl]benzenesulfonamide]: the “lipid accumulation on LXR activation in GPR35 knock-out clones” value in series [3] is recorded as “still able to promote lipid accumulation”. Further, the “lipid accumulation in mouse hepatocytes” value in series [4] is “able to promote lipid accumulation”. In series [5], the “lipid accumulation (Oil Red O) in hepatocytes from hGPR35a-HA-expressing mice” value is “clear increase in lipid accumulation”. Further, the “effect of T0901317 on lipid accumulation in hepatocytes from GPR35 knock-out mice” value in series [6] is “modest”. Also, in the series with HepG2 cells [7], the “deposition of triglycerides and other lipids (Oil Red O)” value is “substantially increased”.
